Data taken from US7759345B2, “Antitumoral derivatives of ET-743” (priority 2001, dated 2010).
Where two headings read alike, the source gives them in different places.

Tests used:
SK-OV-3 = assay: Inhibition of cells growth by colorimetric assay (SRB), SK-OV-3; type: cell-based; conditions: SRB, 48 hours exposure; for GI50 / LC50: Homo sapiens, SK-OV-3, 48 h; for GI50 / SK-OV3 TGI: SK-OV3; for GI50: read-out: SK-OV3 GI50; for LC50: read-out: SK-OV3 LC50, SK-OV3
Summary of the method: (§1)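 Human cancer cells (5×10^3/well) attached 18 h in RPMI 1640 10% FBS, then exposed 48 h at 37°C to compounds from 10 to 10^−8 μg/ml in DMSO/EtOH/PBS. TCA-fixed, SRB-stained, OD read at 490 nm; GI, TGI and LC derived from triplicate wells.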

A-549 = assay: Inhibition of cells growth by colorimetric assay (SRB), A-549; type: cell-based; conditions: SRB, 48 hours exposure; for GI50 / LC50 (concentration for 50% cell killing): Homo sapiens, A549, 48 h; for LC50 (concentration for 50% cell killing): read-out: A-549 LC50, A-549
Summary of the method: as §1

DU-145 = assay: Inhibition of cells growth by colorimetric assay (SRB), DU-145; type: cell-based; conditions: SRB, 48 hours exposure; for GI50 / CC50: Homo sapiens, DU-145, 48 h; for DU-145 TGI / GI50: DU-145; for GI50: read-out: DU-145 GI50; for CC50: read-out: DU-145 LC50, DU-145
Summary of the method: as §1

SK-BR-3 = assay: Inhibition of cells growth by colorimetric assay (SRB), SK-BR-3; type: cell-based; conditions: SRB, 48 hours exposure; for GI50 / CC50: Homo sapiens, SK-BR-3, 48 h; for GI50 / SK-BR3 TGI: SK-BR3; for GI50: read-out: SK-BR3 GI50; for CC50: read-out: SK-BR3 LC50, SK-BR3
Summary of the method: as §1

PANC-1 = assay: Inhibition of cells growth by colorimetric assay (SRB), PANC-1; type: cell-based; conditions: SRB, 48 hours exposure; for GI50 / LC50 (concentration for 50% net cell kill): Homo sapiens, PANC-1, 48 h; for GI50 / PANC-1 TGI: PANC-1; for GI50: read-out: PANC-1 GI50; for LC50 (concentration for 50% net cell kill): read-out: PANC-1 LC50, PANC-1
Summary of the method: as §1

K-562 = assay: Inhibition of cells growth by colorimetric assay (SRB), K-562; type: cell-based; conditions: SRB, 48 hours exposure; for GI50 / LC50 (50% cell killing): Homo sapiens, K562, 48 h; for GI50 / K-562 TGI: K-562; for GI50: read-out: K-562 GI50; for LC50 (50% cell killing): read-out: K-562 LC50, K-562
Summary of the method: as §1

IGROV-1 = assay: Inhibition of cells growth by colorimetric assay (SRB), IGROV-1; type: cell-based; conditions: SRB, 48 hours exposure; for GI50 / CC50: Homo sapiens, IGROV-1, 48 h; for GI50 / IGROV TGI: IGROV; for GI50: read-out: IGROV GI50; for CC50: read-out: IGROV LC50, IGROV
Summary of the method: as §1

HMEC1 = assay: Inhibition of cells growth by colorimetric assay (SRB), HMEC1; type: cell-based; conditions: SRB, 48 hours exposure; for GI50 / LC50: Homo sapiens, HMEC-1, 48 h; for HMEC-1 TGI / GI50: HMEC-1; for GI50: read-out: HMEC-1 GI50; for LC50: read-out: HMEC-1 LC50, HMEC-1
Summary of the method: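 Compound in DMSO/EtOH/PBS vehicle was applied at 10 to 10^−8 μg/ml to attached cells (5×10^3/well, 18 h) for 48 h. Cells were then fixed with cold TCA and stained with 0.4% SRB in 1% acetic acid.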

HT-29 = assay: Inhibition of cells growth by colorimetric assay (SRB), HT-29; type: cell-based; conditions: SRB, 48 hours exposure; for GI50 / LC50 (concentration for 50% cell killing): Homo sapiens, HT-29, 48 h; for HT-29 TGI / GI50: HT-29; for GI50: read-out: HT-29 GI50; for LC50 (concentration for 50% cell killing): read-out: HT-29 LC50, HT-29
Summary of the method: as §1

LoVo-Dox = assay: Inhibition of cells growth by colorimetric assay (SRB), LoVo-Dox; type: cell-based; conditions: SRB, 48 hours exposure; for GI50 / CC50: Homo sapiens, 48 h; for GI50 / LOVO-DOX TGI: LOVO-DOX; for GI50: read-out: LOVO-DOX GI50; for CC50: read-out: LOVO-DOX LC50, LOVO-DOX
Summary of the method: as §1

LoVo = assay: Inhibition of cells growth by colorimetric assay (SRB), LoVo; type: cell-based; conditions: SRB, 48 hours exposure; for GI50 / LC50 (concentration for 50% cell killing): Homo sapiens, LoVo, 48 h; for GI50 / LOVO TGI: LOVO; for GI50: read-out: LOVO GI50; for LC50 (concentration for 50% cell killing): read-out: LOVO LC50, LOVO
Summary of the method: as §1

IGROV-ET = assay: Inhibition of cells growth by colorimetric assay (SRB), IGROV-ET; type: cell-based; conditions: SRB, 48 hours exposure; for GI50 / CC50: Homo sapiens, 48 h; for GI50 / IGROV-ET TGI: IGROV-ET; for GI50: read-out: IGROV-ET GI50; for CC50: read-out: IGROV-ET LC50, IGROV-ET
Summary of the method: as §1

LNCaP = assay: Inhibition of cells growth by colorimetric assay (SRB), LNCaP; type: cell-based; conditions: SRB, 48 hours exposure; for GI50 / CC50: Homo sapiens, LNCaP, 48 h; for GI50: read-out: LNCAP GI50, LNCAP; for CC50: read-out: LNCAP LC50, LNCAP
Summary of the method: as §1

SK-MEL-28 = assay: Inhibition of cells growth by colorimetric assay (SRB), SK-MEL-28; type: cell-based; conditions: SRB, 48 hours exposure; for GI50 / CC50: Homo sapiens, SK-MEL-28, 48 h; for GI50 / MEL-28 TGI: MEL-28; for GI50: read-out: MEL-28 GI50; for CC50: read-out: MEL-28 LC50, MEL-28
Summary of the method: as §1

Source text for Heart: (§2) Toxicity was asssessed by the methods reported in Toxicology in Vitro, 15 (2001) 571-577, J. Luber Narod et al.: “Evaluation of the use of in vitro methodolodies as tools for screening new compounds for potential in vivo toxicity”.
Source text for Kidney: as §2
Source text for Liver: as §2
Source text for Myelo: as §2
Source text for Skeletal: as §2

COc1cc2c(cc1OC)[C@@]1(CS[C@@H]3c4c(OC(C)=O)c(C)c5c(c4[C@H](COC1=O)N1C3[C@H]3c4c(cc(C)c(OC)c4OC)C[C@@H]([C@@H]1O)N3C)OCO5)NCC2 (stereo partly shown) [Compound 87]
GI50 (SK-OV-3): 21.6 nM | LC50 (SK-OV-3): 8.99 µM | SK-OV3 TGI (SK-OV-3): 6.56E-08 | TGI A-549 (A-549; A-549): 4.77E-08 | GI50 (A-549; A-549, read-out: GI50 A-549): 23.8 nM | LC50 (concentration for 50% cell killing) (A-549): 95.8 nM | DU-145 TGI (DU-145): 5.22E-08 | GI50 (DU-145): 13.5 nM | CC50 (DU-145): 180 nM | Toxicity Data Kidney (Kidney): 8.09E-08 | GI50 (SK-BR-3): 16.5 nM | CC50 (SK-BR-3): 101 nM | SK-BR3 TGI (SK-BR-3): 4.08E-08 | Toxicity Data Heart (Heart): 3.60E-08 | GI50 (PANC-1): 25.3 nM | LC50 (concentration for 50% net cell kill) (PANC-1): 876 nM | PANC-1 TGI (PANC-1): 7.39E-08 | Toxicity Data Skeletal (Skeletal): 2.00E-07 | GI50 (K-562): 0.871 nM | LC50 (50% cell killing) (K-562): 7.15 nM | K-562 TGI (K-562): 2.96E-09 | GI50 (IGROV-1): 4.8 nM | CC50 (IGROV-1): 80.4 nM | IGROV TGI (IGROV-1): 1.63E-08 | HMEC-1 TGI (HMEC1): 9.65E-08 | GI50 (HMEC1): 16.7 nM | LC50 (HMEC1): 12.7 µM | Toxicity Data Liver (Liver): 6.18E-08 | HT-29 TGI (HT-29): 1.12E-07 | GI50 (HT-29): 24.4 nM | LC50 (concentration for 50% cell killing) (HT-29): 0.38 µM | GI50 (LoVo-Dox): 38.7 nM | CC50 (LoVo-Dox): 12.7 µM | LOVO-DOX TGI (LoVo-Dox): 1.42E-07 | GI50 (LoVo): 22.7 nM | LC50 (concentration for 50% cell killing) (LoVo): 123 nM | LOVO TGI (LoVo): 5.27E-08 | Toxicity Data Myelo (Myelo): 2.44E-07 | GI50 (IGROV-ET): 28.4 nM | CC50 (IGROV-ET): 5.84 µM | IGROV-ET TGI (IGROV-ET): 7.77E-08 | GI50 (LNCaP): 4.73 nM | CC50 (LNCaP): 40.5 nM | LNCAP TGI (LNCaP): 1.12E-08 | GI50 (SK-MEL-28): 19.2 nM | CC50 (SK-MEL-28): 109 nM | MEL-28 TGI (SK-MEL-28): 4.57E-08

COC1=C(C)C(=O)C2=C(C1=O)[C@@H]1C3[C@@H]4SC[C@]5(NCCc6cc(O)c(OC)cc65)C(=O)OC[C@@H](c5c6c(c(C)c(OC(C)=O)c54)OCO6)N3[C@@H](O)[C@H](C2)N1C (stereo partly shown) [Compound 101]
GI50 (SK-OV-3): 4.49 nM | LC50 (SK-OV-3): 12.9 µM | SK-OV3 TGI (SK-OV-3): 9.77E-09 | A-549 TGI (A-549; A-549): 6.52E-09 | GI50 (A-549; A-549, read-out: A-549 GI50): 3.69 nM | LC50 (concentration for 50% cell killing) (A-549): 11.5 nM | DU-145 TGI (DU-145): 7.46E-09 | GI50 (DU-145): 3.74 nM | CC50 (DU-145): 17.9 nM | Toxicity Data Kidney (Kidney): 3.17E-08 | GI50 (SK-BR-3): 2.63 nM | CC50 (SK-BR-3): 46.8 nM | SK-BR3 TGI (SK-BR-3): 6.44E-09 | Toxicity Data Heart (Heart): 7.67E-08 | GI50 (PANC-1): 5.66 nM | LC50 (concentration for 50% net cell kill) (PANC-1): 1340 nM | PANC-1 TGI (PANC-1): 2.27E-08 | Toxicity Data Skeletal (Skeletal): 3.40E-09 | GI50 (K-562): 0.25 nM | LC50 (50% cell killing) (K-562): 19.2 nM | K-562 TGI (K-562): 6.20E-10 | GI50 (IGROV-1): 2.5 nM | CC50 (IGROV-1): 10.7 nM | IGROV TGI (IGROV-1): 5.17E-09 | HMEC-1 TGI (HMEC1): 1.17E-08 | GI50 (HMEC1): 3.05 nM | LC50 (HMEC1): 12.9 µM | Toxicity Data Liver (Liver): 5.40E-08 | HT-29 TGI (HT-29): 1.03E-08 | GI50 (HT-29): 3.57 nM | LC50 (concentration for 50% cell killing) (HT-29): 12.9 µM | GI50 (LoVo-Dox): 251 nM | CC50 (LoVo-Dox): 12.9 µM | LOVO-DOX TGI (LoVo-Dox): 9.29E-07 | GI50 (LoVo): 13.4 nM | LC50 (concentration for 50% cell killing) (LoVo): 219 nM | LOVO TGI (LoVo): 4.68E-08 | Toxicity Data Myelo (Myelo): 1.96E-08 | GI50 (IGROV-ET): 30.5 nM | CC50 (IGROV-ET): 0.246 µM | IGROV-ET TGI (IGROV-ET): 6.88E-08 | GI50 (LNCaP): 2.5 nM | CC50 (LNCaP): 7.71 nM | LNCAP TGI (LNCaP): 4.40E-09 | GI50 (SK-MEL-28): 3.35 nM | CC50 (SK-MEL-28): 26 nM | MEL-28 TGI (SK-MEL-28): 7.02E-09
